The text below walks through data of patent US11207301B2, “Sphingosine 1 phosphate receptor agonists for neuroprotection” (RECEPTOS LLC, priority 2017, dated 2021).

As usually defined, the EC50 is the concentration giving half of the maximal effect. A high value points to weaker potency.

What all share (type): cell-based
Assay [1] relates to AKT phosphorylation in primary rat astrocytes. Briefly: AKT phosphorylation in primary rat astrocytes (MSD pAKT assay). The following applies: 10-minute exposure, mean of n=4. The procedure: (§1) For the experiments using rat primary astrocytes, eight-point concentration-response curves were generated for AKT and ERK phosphorylation in primary rat astrocytes cultures in response to a 10-minute treatment with ozanimod (100 nM-46 pM), Compound 3 (10 nM-5 pM), Compound 1 (10 nM-5 pM), or FTY720-P (10 nM-5 pM). Phosphorylation of AKT and ERK was quantified using Meso Scale Discovery assay kits (MSD Mutli-Spot Phopho-AKT (Ser473) Assay Kit and MSD Multi-Spot MAP Kinase Phosphoprotein Assay Whole Cell Lysate Kit) and imaging platform. AKT and ERK phosphorylation within treated astrocytes were assessed as the mean change in signal intensity compared to DMSO vehicle and the half maximal effective concentration (EC50) was determined using non-linear regression.
(§2) Embryonic day18 (E18) rat cortices were purchased from BrainBits LLC. (Springfield, Ill.) and were cultured according to the supplier's protocol. Briefly, cortices were incubated at 37° C. for 10 minutes in activated papain solution before trituration in hibernation medium containing B27 supplement using a modified siliconized glass Pasteur pipette. The cell suspension was centrifuged at 1100×g for 1 minute at room temperature (RT). The cell pellet was then resuspended in NbAstro medium (BrainBits LLC.) and the live cell density was assessed using a cell counter. Primary cells were plated at a density of 7500 cells/cm2 in T75 tissue culture flasks coated with poly-D-lysine (PDL) in a total volume of 12 mL of NbAstro media, and incubated for 10-14 days at 37° C. 5% CO2. After 10-14 days, primary astrocytes in passage 0 (P0) that had reached confluency in the T75 flasks were detached using TrypLE detachment reagent, pelleted at 300×g, and plated into poly-d-lysine coated T225 flasks in 20 mL of NbAstro media, and incubated for another 7 days at 37° C. 5% CO2. After 7 days, primary P1 astrocytes in confluent T225 flasks were detached using TrypLE detachment reagent, pelleted at 300×g, and plated intopoly-d-lysine coated 96-well plates at 10,000 cells per well in 200 μL of NbAstro media, and incubated for 7 days at 37° C. 5% CO2. After 7 days, P2 primary astrocytes were utilized for pAKT and pERK assays.
The pAKT (phosphorylated AKT) assay was performed according to the manufacturer's protocol. Briefly, MSD pAKT plates were blocked for 1-2 hours by adding 150 μL of blocker A prepared in 1× Tris wash buffer. […] Following antibody incubation, plates were washed three times with 150 μL of 1× Tris wash buffer and 1× read buffer (150 μL/well) was added. Finally, plates were read in the MSD imager platform to assess pAKT levels.
(§3) AKT and ERK phosphorylation data were analyzed by non-linear regression (GraphPad Prism, version 6) to determine the EC50 values.

Assay [2] concerns ERK phosphorylation in primary rat astrocytes. Description: ERK phosphorylation in primary rat astrocytes (MSD pERK assay). To be noted: 10-minute exposure, mean of n=3. The method, then:
as §1, §2
The pERK (phosphorylated ERK)/pMAPkinase assay was performed according to the manufacturer's protocol. Briefly, MSD pERK/pMAPkinase plates were blocked for 1-2 hours by adding 150 μL of blocker A prepared in 1× Tris wash buffer. […] Following antibody incubation, plates were washed three times with 150 μL of 1× Tris wash buffer and 1× read buffer (150 μL/well) was added. Finally, the plates were read in the MSD imager platform to assess the pERK levels.
as §3

For assay [3], the system named is AKT phosphorylation in primary mouse astrocytes. Description: AKT phosphorylation in primary mouse cortical astrocytes (AlphaLISA SureFire Ultra). The following applies: 10-minute exposure, mean of n=3. The method, then:
(§4) For the experiments using mouse and human primary astrocytes, ten-point concentration-response curves (90 nM-4.57 pM or 30 nM-1.52 pM) were generated for AKT and/or ERK phosphorylation in primary human and mouse cortical astrocytic cultures in response to a 10-minute treatment with ozanimod, Compound 3, Compound 1, or FTY720-P. AKT and ERK phosphorylation were quantified using AlphaLISA SureFire Ultra Assay kits and the EnVision Plate Reader. AKT and ERK phosphorylation within treated astrocytes were expressed as the mean change in signal intensity compared to the dimethyl sulfoxide (DMSO) vehicle and the half maximal effective concentration (EC50) was determined using non-linear regression.
(§5) Timed pregnant (E16) C57BL/6J female mice arrive to the test facility on a weekly basis and were housed and cared for according to appropriate protocols for this model. Primary mouse cortical astrocytes are harvested from P0-P2 pups. The newly born animals were deeply anesthetized on ice, decapitated, and the brains were rapidly removed and stored in ice-cold NbAstro media (BrainBits, LLC). Cells were dissociated from freshly dissected cortices by mechanical disruption in the presence of trypsin and DNase. Cells were put into a PDL coated T75 tissue culture flask containing 16 mL NbAstro Media and incubated at 37° C. 5% CO2. Once the mouse astrocytes had reached confluency in the T75 flask, they were detached using TripLE detachment reagent, pelleted at 300×g, expanded into two T225 PDL coated tissue culture flasks containing 40 mL of NbAstro and incubated at 37° C. 5% CO2. Once the astrocytes reached confluency in the T225 flasks they were detached using TrypLE detachment reagent, pelleted at 300×g, plated into PDL coated 96-well plates at a density of 10,000 cells per well in 200 μL NbAstro and incubated at 37° C. 5% CO2. Half of the media was replenished every 3-4 days. After 5-7 days of incubation, the P2 mouse astrocyte plates were utilized for the pERK and pAKT assays.
Cell lysis and detection of pAKT were performed according to the PerkinElmer AlphaLISA SureFire Ultra pAKT1/2/3 ([…]) assay protocol. Astrocytes were lysed in the 96-well plate following a 10 minute incubation with compounds with shaking at room temperature (RT). The astrocytic lysates (10 μL/well) were transferred into a 384-well OptiPlate. As specified by the assay protocol, an acceptor bead mix and a donor bead mix (5 μL/well for each) were added to the plate under subdued light. […] The plates were read on the EnVision Plate Reader to assess the pAKT levels.
(§6) The AKT and ERK phosphorylation data, collected by a Perkin Elmer EnVision Microplate Reader, was analyzed by non-linear regression (GraphPad Prism, version 7.03) to determine the EC50 values.
(In general: Alpha assays give light when donor and acceptor beads are brought close together.)

In assay [4] the test system is ERK phosphorylation in primary mouse astrocytes. Description: ERK phosphorylation in primary mouse cortical astrocytes (AlphaLISA SureFire Ultra). To be noted: 10-minute exposure. The method, then:
as §4
as §5, with “Once the astrocytes reached confluency in the T225 flasks they were detached using TrypLE detachment reagent, pelleted at 300×g, plated into PDL coated 96-well plates at a density of 10,000 cells per well in 200 μL NbAstro and incubated at 37° C. 5% CO2. Half of the media was replenished every 3-4 days. After 5-7 days of incubation, the P2 mouse astrocyte plates were utilized for the pERK and pAKT assays.” left out
Cell lysis and detection of pERK were performed according to the PerkinElmer AlphaLISA SureFire Ultra p-ERK1/2 (Thr202/TYR 204) assay protocol. […] The plates were read on the EnVision Plate Reader to assess the pERK levels.
as §6

The subject of assay [5] is ERK phosphorylation in primary human astrocytes. Description: ERK phosphorylation in primary human cortical astrocytes (AlphaLISA SureFire Ultra). The following applies: 10-minute exposure, n=3-5. The procedure:
as §4
Primary human astrocytes were purchased from ScienCell Research Laboratories, Inc. and cultured according to the supplier's protocol. The astrocytes were obtained from the human cerebral cortex, cryopreserved at passage one, and delivered frozen. The frozen vials of cells were gently thawed in a 37° C. water bath. Once the contents of the vial were completely thawed, the cell solution was dispensed into a poly-L-lysine (PLL) coated T75 tissue culture flask with 16 mL of human Astrocyte Media, (ScienCell Research Laboratories, Inc.) and incubated at 37° C. 5% CO2. Once the human astrocytes had reached confluency in the T75 flask, they were detached using trypsin/EDTA 0.25%, pelleted at 300×g, split into two PLL coated T225 tissue culture flasks in 40 mL of astrocyte media, and incubated at 37° C. 5% CO2. Once the astrocytes reached confluency in the T225 flasks, they were detached using trypsin/EDTA 0.25% solution, pelleted at 300×g, plated into poly-D-lysine (PDL) coated 96-well plates at a density of 10,000 cells per well in 200 μL human Astrocyte Media, and incubated at 37° C. 5% CO2. Half of the media was replenished every 3-4 days. After 5-7 days of incubation, the P2 human astrocyte plates were utilized for the pERK and pAKT assays.
Cell lysis and detection of pERK were performed according to the PerkinElmer AlphaLISA SureFire Ultra p-ERK1/2 (Thr202/TYR 204) assay protocol. Astrocytes were lysed in the 96-well plate following a 10 minute incubation with compounds with shaking at RT. The astrocytic lysates (10 μL/well) were transferred into a 384-well OptiPlate. As specified by the assay protocol, an acceptor bead mix and a donor bead mix (5 μL/well for each) were added to the plate under subdued light. Plates were sealed with adhesive plate seals and incubated in the dark for 2 hours at RT. The plates were read on the EnVision Plate Reader to assess the pERK levels.
as §6

In the case of `CCCCCCCCc1ccc(CC[C@](N)(CO)COP(=O)(O)O)cc1` [FTY720-P, reference compound], the half-maximal effective concentration (EC50) in assay [1] stood at 0.17 nM; in assay [2], 0.16 nM; in assay [3], 0.09 nM; in assay [4] it was 0.14 nM; in assay [5], 0.73 nM.
